{"source": "patent US9540355B2", "about": "“Irciniastatin analogues” (priority 2013, dated 2017)", "key": {"MOLT-4": {"test_system": "MOLT-4", "settings": "leukemia MOLT-4; read-out: LC50 (the source's name); cited from earlier work"}, "[1]": {"test_system": "IMR-90 human fibroblast cells", "experiment": "IMR-90 cytotoxicity assay", "format": "cell-based", "settings": "IMR-90, 72 h, quiescent non-dividing cells, 0.1% FBS, 3 days incubation, read-out: IC50 (nM) Quiescent IMP-90", "description": "IMR-90 Cytotoxicity Assay.\nTo evaluate the effect of compounds of the invention on non-proliferating normal cells, an in vitro cytotoxicity assay developed to distinguish between true antiproliferative activity and general cellular cytotoxicity unrelated to proliferation was used. Rudolph-Owen L A, Salvato K, Cheng C, Wu J, Towle M J and Littlefield B A: A 96-well plate cell-based assay to quantify undesired cytotoxic effects against quiescent non-dividing cells. Proc Amer Assoc Cancer Res 45: 264-265, 2004. In brief, IMR-90 human fibroblast cells, obtained from ATCC, were grown for 4 days to confluency in MEM containing 10% FBS and supplemented with L-glutamine, penicillin/streptomycin. After washing, the medium was replaced with complete MEM containing 0.1% FBS and the cells were cultured for 3 additional days to achieve complete quiescence. A compound of the invention or vehicle control was then added in the continued presence of 0.1% FBS, followed by incubation for 3 days at 37° C. Cell viability was assessed by the measurement of cellular ATPlevels using CellTiter-Glo reagent (Promega)."}, "[2]": {"test_system": "panel of 60 human cancer cell lines", "settings": "cited from earlier work"}, "BXPC-3": {"test_system": "BXPC-3", "settings": "pancreas BXPC-3; cited from earlier work"}, "SK-MEL-5": {"test_system": "SK-MEL-5", "settings": "melanoma SK-MEL-5; read-out: LC50 (the source's name); cited from earlier work"}, "CCRF-CEM": {"test_system": "CCRF-CEM", "settings": "leukemia CCRF-CEM; cited from earlier work"}, "[3]": {"test_system": "P388 murine lymphocytic leukemia cell line", "settings": "cited from earlier work"}, "SF-268": {"test_system": "SF-268", "settings": "CNS SF-268; cited from earlier work"}, "HS 578T": {"test_system": "HS 578T", "settings": "breast cancer HS 578T; cited from earlier work"}, "[4]": {"test_system": "several solid tumor cell lines", "settings": "cited from earlier work"}, "LOX IMVI": {"test_system": "LOX IMVI", "settings": "melanoma LOX IMVI; read-out: LC50 (the source's name); cited from earlier work"}, "HCT-116 [5]": {"test_system": "HCT-116", "settings": "colon cancer HCT-116; read-out: LC50 (the source's name); cited from earlier work"}, "T-47D": {"test_system": "T-47D", "settings": "breast cancer T-47D; read-out: LC50 (the source's name); cited from earlier work"}, "MCF7": {"test_system": "MCF7", "settings": "breast cancer MCF7; read-out: LC50 (the source's name); cited from earlier work"}, "DU-145": {"test_system": "DU-145", "settings": "prostate DU-145; cited from earlier work"}, "SW-620": {"test_system": "SW-620", "settings": "colon cancer SW-620; read-out: LC50 (the source's name); cited from earlier work"}, "HL-60(TB)": {"test_system": "HL-60(TB)", "settings": "leukemia HL-60(TB); read-out: LC50 (the source's name); cited from earlier work"}, "MDA-MB-435": {"test_system": "MDA-MB-435", "settings": "breast cancer MDA-MB-435; read-out: LC50 (the source's name); cited from earlier work"}, "HCT-116 [6]": {"test_system": "HCT-116", "experiment": "Cell growth inhibition assay (CellTiter-Glo)", "format": "cell-based, human", "protocol": "(§1) Cell Culture and Cell Growth Inhibition Assay.\n(§2) The chosen cell lines are all human cancer cell lines except for the 4T1 murine breast cancer line, representing a wide variety of cancer types including breast (MDA-MB-453), kidney (A498), lung (H1975), pancreatic (PANC-1) and endometrial cancer (AN3CA, HEC-1A, and RL95-2), glioblastoma (U251 and U-87MG), melanoma (A2058 and LOXIMVI) and uterine sarcoma (MES-SA). All the cancer cell lines can be obtained from the American Type Culture Collection (ATCC, Manassas, Va., USA) with the exception of U251 which can be provided by the National Cancer Institute Tumor Repository (Frederick, Md.) and is cultured in the standard tissue culture media appropriate for each cell line. All the culture media are supplemented with 10% fetal bovine serum (FBS), 100 I.U./mL penicillin and 100 μg/mL streptomycin. For the cell growth inhibition assay, the cells are seeded in 96-well tissue culture plates at 500-3000 cells/well (seeding density empirically adjusted for each cell line based on growth rate optimization). The cells are allowed to attach for a minimum of 5 h prior to compound administration. The cells are incubated for a period of 4 days after compound addition. Following the incubation period, CellTiter-Glo reagent (Promega, Madison, Wis., USA) is added to all the wells to assess cell proliferation/viability. Luminescence is measured using an Envision microplate reader (Perkin Elmer, Waltham, Mass., USA). The IC50 values were calculated as the concentration which inhibited cell growth to 50% of DMSO control treated cell populations."}, "A2058": {"test_system": "A2058", "experiment": "Cell growth inhibition assay (CellTiter-Glo)", "format": "cell-based, human", "protocol": "as §1, §2"}, "H522-T1": {"test_system": "H522-T1", "experiment": "Cell growth inhibition assay (CellTiter-Glo)", "format": "cell-based, human", "protocol": "as §1, §2"}, "HT29": {"test_system": "HT29", "settings": "colon cancer HT29; read-out: LC50 (the source's name); cited from earlier work"}, "HCC-2998": {"test_system": "HCC-2998", "settings": "colon cancer HCC-2998; read-out: LC50 (the source's name); cited from earlier work"}, "MALME-3M": {"test_system": "MALME-3M", "settings": "melanoma MALME-3M; read-out: LC50 (the source's name); cited from earlier work"}, "[7]": {"settings": "Homo sapiens, 96 h, 4 days incubation"}, "[8]": {"settings": "ratio IC50[IMR-90]:IC50[tumor cell line]"}}}
{"smiles": "C=C(C)C[C@H](OC)[C@H](O)C(=O)N[C@@H](OC)[C@@H]1C[C@@H](O)C(C)(C)[C@@H](C[C@H](O)[C@@H](C)[C@H]2Cc3c(C)c(O)cc(O)c3C(=O)O2)O1", "note": "[Irciniastatin A, (+)-Irciniastatin A]", "values": [{"measurement": "CC50", "setting": "MOLT-4", "result": "> 25000", "unit": "nM"}, {"measurement": "IC50", "setting": "[1]", "result": 27, "unit": "nM"}, {"measurement": "activity differential as compared to other cell lines within their respective subsets", "setting": "[2]; MDA-MB-35, SK-MEL-28, UACC-62, HCT-116 versus other lines of the subset", "result": "greater than 10,000 fold"}, {"measurement": "activities", "setting": "[2]; MDA-MB-35 breast cancer, SK-MEL-28 and UACC-62 melanoma, HCT-116 colon cancer cell lines", "result": "low nanomolar range"}, {"measurement": "Growth Inhibition of Cancer Cell Lines (GI50)", "setting": "BXPC-3", "result": 3.8, "unit": "ng/mL"}, {"measurement": "CC50", "setting": "SK-MEL-5", "result": "< 2.5", "unit": "nM"}, {"measurement": "LC50", "setting": "CCRF-CEM", "result": "> 25000", "unit": "nM"}, {"measurement": "Growth Inhibition of Cancer Cell Lines (GI50)", "setting": "[3]", "result": 4.13, "unit": "ng/mL"}, {"measurement": "Growth Inhibition of Cancer Cell Lines (GI50)", "setting": "SF-268", "result": 3.4, "unit": "ng/mL"}, {"measurement": "LC50", "setting": "HS 578T", "result": "> 25000", "unit": "nM"}, {"measurement": "hollow fiber assay overall score", "setting": "[4]; compounds considered active score 20 or higher", "result": 34}, {"measurement": "hollow fiber assay score against intraperitoneal fibers", "setting": "[4]; intraperitoneal fibers", "result": 28}, {"measurement": "hollow fiber assay score against subcutaneous fibers", "setting": "[4]; subcutaneous fibers", "result": 6}, {"measurement": "CC50", "setting": "LOX IMVI", "result": "> 25000", "unit": "nM"}, {"measurement": "CC50", "setting": "HCT-116 [5]", "result": "< 2.5", "unit": "nM"}, {"measurement": "CC50", "setting": "T-47D", "result": 13600, "unit": "nM"}, {"measurement": "CC50", "setting": "MCF7", "result": "> 25000", "unit": "nM"}, {"measurement": "Growth Inhibition of Cancer Cell Lines (GI50)", "setting": "DU-145", "result": 2.4, "unit": "ng/mL"}, {"measurement": "CC50", "setting": "SW-620", "result": "> 25000", "unit": "nM"}, {"measurement": "CC50", "setting": "HL-60(TB)", "result": "> 25000", "unit": "nM"}, {"measurement": "CC50", "setting": "MDA-MB-435", "result": "< 2.5", "unit": "nM"}, {"measurement": "IC50", "setting": "HCT-116 [6]; [7]", "result": 4, "unit": "nM"}, {"measurement": "Selectivity vs. IMR-90, HCT-116", "setting": "HCT-116 [6]; [8]", "result": 7}, {"measurement": "IC50", "setting": "A2058; [7]", "result": 0.4, "unit": "nM"}, {"measurement": "Selectivity vs. IMR-90, A2058", "setting": "A2058; [8]", "result": 68}, {"measurement": "IC50", "setting": "H522-T1; [7]", "result": 1, "unit": "nM"}, {"measurement": "Selectivity vs. IMR-90, H522-T1", "setting": "H522-T1; [8]", "result": 27}, {"measurement": "CC50", "setting": "HT29", "result": "> 25000", "unit": "nM"}, {"measurement": "CC50", "setting": "HCC-2998", "result": 360, "unit": "nM"}, {"measurement": "CC50", "setting": "MALME-3M", "result": "< 2.5", "unit": "nM"}]}
